Experimental data: patent publication EP4813463A2, “TYK2 INHIBITORS AND COMPOSITIONS AND METHODS THEREOF” (Lynk Pharmaceuticals Co. Ltd., priority 2023, dated 2024)
pIC50: −log10 of the molar value. ≈ marks a conversion by molar mass, not a printed value. Like-named read-outs stand apart in the source and are kept apart here.

Tests used:
JAK1-JH2 domain = target: T1, JAK1-JH2 domain (Homo sapiens, UniProt P23458); assay: Binding activity test for JH2 domain of JAK1 (Tb-antibody/tracer FRET); details: JH2 domain enzyme; 60 min at 25°C, then 4°C overnight; read-out: JAK1 JH2 Binding IC50
T1 construct: JAK1-JH2 domain or TYK2-JH2 domain enzyme in assay buffer
T1 sequence (P23458 583-855 limits assumed): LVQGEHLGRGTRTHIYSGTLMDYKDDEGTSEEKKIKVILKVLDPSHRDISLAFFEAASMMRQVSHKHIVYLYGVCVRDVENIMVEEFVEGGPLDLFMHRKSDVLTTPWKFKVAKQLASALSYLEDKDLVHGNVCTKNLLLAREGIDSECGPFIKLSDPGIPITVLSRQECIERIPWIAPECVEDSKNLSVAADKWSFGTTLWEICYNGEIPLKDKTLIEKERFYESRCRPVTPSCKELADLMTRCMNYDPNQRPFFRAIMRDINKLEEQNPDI
Method in brief: (§1)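 Competitive TR-FRET binding: compounds dispensed as an 11-point 3-fold dilution series, then Tb-labelled antibody and tracer added to the JH2 protein system. Incubated at 25°C, then overnight at 4°C; FRET signal read on Envision and IC50 (nM) derived.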

TYK2-JH2 domain = target: T2, TYK2-JH2 domain (Homo sapiens, UniProt P29597); assay: Binding activity test for JH2 domain of TYK2 (Tb-antibody/tracer FRET); details: for pIC50: JH2 domain enzyme, 60 min at 25°C, then 4°C overnight, read-out: TYK2 JH2 Binding IC50; for JAK1/TYK2 selectivity: ratio of JAK1 JH2 to TYK2 JH2 binding IC50
T2 construct: JAK1-JH2 domain or TYK2-JH2 domain enzyme in assay buffer
T2 sequence (P29597 589-875 limits assumed): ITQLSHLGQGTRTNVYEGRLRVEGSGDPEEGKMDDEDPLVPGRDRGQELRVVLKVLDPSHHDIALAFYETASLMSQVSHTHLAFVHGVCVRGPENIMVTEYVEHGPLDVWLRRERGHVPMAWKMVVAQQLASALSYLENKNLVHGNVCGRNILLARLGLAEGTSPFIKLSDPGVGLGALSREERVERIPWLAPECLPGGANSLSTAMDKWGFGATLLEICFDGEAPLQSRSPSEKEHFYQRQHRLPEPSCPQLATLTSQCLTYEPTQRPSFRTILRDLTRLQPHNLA
Method in brief: as §1

Kinetic solubility = type: physicochemical; details: phosphate buffer, pH 7.4, aqueous buffer, kinetic from dmso stock, 100 mM pH 7.4 phosphate buffer, 1% DMSO, room temperature, read-out: Kinetics Solubility_PBS7.4
Protocol: Aliquots of 8 µL of reference and test compound stock solutions (10 mM/5 mM) are added into 792 µL of 100 mM pH 7.4 phosphate buffer. The final DMSO concentration is 1%. Sample tubes are shaken for 2 hours at 1000 rpm at room temperature. Samples are centrifuged at 12000 rpm for 10 min to precipitate un-dissolved particles. And transfer the supernatants to a new tube or plate. Add 5 µL of samples (no diluted, 10 times diluted, and 100 times diluted) and standard curve samples to 95 µL of ACN containing IS for LC-MS/MS analysis. Kinetic Solubilities Values of Exemplary Compounds

[1] = test system: Ba/F3-FL-TYK2-P760L cells; assay: Anti-proliferative assay in engineered Ba/F3 cells (Cell-Titer Glo, 72 h); type: cell-based; details: 72 h compound treatment, concentration that causes 50% growth inhibition, read-out: Baf3-FL-T2P760L
Method in brief: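 Ba/F3 cells carrying Tel-dimerization/JAK kinase fusion, IL-3-independent, in RPMI-1640 + 10% FBS; 9-point 3-fold dilutions from 20 µM (0.1% DMSO) added after 24 h, 72 h at 37 °C. Viability by Cell-Titer Glo ATP luminescence; % inhibition versus DMSO cells, blank-corrected, giving IC50.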

pSTAT1 = assay: Phosphorylation inhibition of STAT in human whole blood (IFN-alpha stimulated, flow cytometry); type: cell-based; details: T-cell, 20 min, IFN-alpha stimulation 20 mins, CD3 T cells, read-out: pSTAT1 inhibition in hWB (IC50)
Protocol: The inhibitory potential of test articles in human whole blood assay was evaluated by the method of flow cytometry.
IFN-alpha will activate JAK1 and TYK2 kinase in T cells by binding to IFN receptors, and then lead to phosphorylation of STAT1 and STAT2. The phosphorylated STAT1 enter nuclear and promote transcription and expression of IFN-gamma. To evaluate the efficacy of TYK2i in T cells, freshly collected human whole blood will be stimulated with certain unit of human IFN-alpha (Universal Type I IFN(1MU), R&D, 11200-2) for 20 mins in incubator. After stimulation, fix cells with Phosflow™ Fix Buffer I (BD, 557870), and then collect fixed cells by centrifugation (500 g, 8min). Wash cells once with pre-cooled PBS, and then permeabilize cells with cold Perm Buffer III buffer (BD, 558050) for 45 mins on ice. Collect cells by centrifugation (600 g, 8min) and washed twice with cold PBS. Stain cells with anti-human CD3(FITC Mouse Anti-Human CD3, BD, 555332) and anti-pSTAT1_Y701(Alexa Fluor 647 Mouse Anti-Stat1 (pY701), BD, 612597) antibodies. Detect pSTAT1 by flow cytometry (CytoFlex S) and analyze data with FlowJo and GraphPad Prism 8 software. IC50 values of test articles were determined using 4- parameter logistic equation.

[2] = Microsomal metabolic stability assay; type: in vitro ADME; details: human, liver microsomes, pH 7.4, 0.5 mg/mL microsomal protein, 1 µM test article, 2 mM NADPH; for microsomal CLint at 1 µM: read-out: Human LM Clint; for half-life at 1 µM: read-out: Human LM T1/2
Protocol: Microsomes were pre-incubated with test compound or control compounds for 5 min at 37°C in 100 mM potassium phosphate buffer, pH 7.4, 1.0 mM EDTA. The reaction was initiated by addition of 15 µL of the NADPH regenerating system to 30 µL of each incubation mixture per time point. The final incubation condition was composed of 0.5 mg/mL microsomal protein, 1 µM test article/positive control, 2 mM NADPH. The 0-minute samples were prepared by addition of a 30 µL aliquot of each incubation mixture to 135 µL quench reagent to precipitate proteins. And then a 15 µL aliquot of the NADPH regenerating system was added. At 5, 15, 30 and 45 minutes, the reaction will be stopped by the addition of cold acetonitrile solution containing internal standard. The samples taken at all time points were centrifuged at 5000×g for 15 minutes. 50 µL of supernatant are taken into 96-well assay plates pre-added with 50 µL ultrapure water, and then analyzed by LC/MS/MS.
Concentrations of test articles, control compounds in the samples were determined by using LC/MS/MS method. Plotting of the chromatograms and peak area integrations are carried out by Analyst (AB Sciex).
In the determination of the in vitro elimination constant (ke) of the control compounds, the analyte/internal standard peak area ratios will be converted to percentage remaining (%Remaining) with the following equation: %Remaining = (Peak area ratio of analyte to IS at each time point)/(Peak area ratio of analyte to IS at t = 0) × 100% [formula]
The CLint of microsomes was calculated using the formula: CLint (mic)=0.693/T1/2 /mg microsome protein per mL. The slope was measured by the natural logarithm of the percentage of the residual compound and time, T1/2 was calculated according to the following formula. T = (0.693)/(−slope) [formula]

| SMILES | pIC50 (JAK1-JH2 domain) | pIC50 (TYK2-JH2 domain) | JAK1/TYK2 selectivity (TYK2-JH2 domain) | solubility kinetic at 2 h (Kinetic solubility) | pIC50 ([1]; Mus musculus, BaF3, 72 h) | pIC50 (pSTAT1) | pIC50 [1] | microsomal CLint at 1 µM [2] | half-life at 1 µM [2] |
| --- | --- | --- | --- | --- | --- | --- | --- | --- | --- |
| [2H]C([2H])([2H])NC(=O)c1cnc(NC(=O)C2CC2)cc1Nc1nn(C)c2ccc([C@H](OC)C(F)(F)F)c(OC)c12 [Example 46A, (S)-6-(cyclopropanecarboxamido)-4-((4-methoxy-1-methyl-5-(2,2,2-trifluoro-1-methoxyethyl)-1H-indazol-3-yl)amino)-N-(methyl-d3)nicotinamide] | 8.52 | 10.13 | 40.64 | 8.16 µM (≈ 4.16 µg/mL) | 9.51 | 7.48 | – | – | – |
| [2H]C([2H])([2H])NC(=O)c1cnc(NC(=O)C2CC2)cc1Nc1cnn2ccc(C(C)C(F)(F)F)c(OC)c12 (single isomer, unassigned) [Example 9B, (S*)-6-(cyclopropanecarboxamido)-4-((4-methoxy-5-(1,1,1-trifluoropropan-2-yl)pyrazolo[1,5-a]pyridin-3-yl)amino)-N-(methyl-d3)nicotinamide] | 8.30 | 10.10 | 63.0 | 45.4 µM (≈ 21.7 µg/mL) | – | 6.54 | 7.27 | – | – |
| [2H]C([2H])([2H])NC(=O)c1cnc(NC(=O)C2CC2)cc1Nc1cnn2ccc(C)c(OC)c12 [Example 5, 6-(Cyclopropanecarboxamido)-4-((4-methoxy-5-methylpyrazolo[1,5-a]pyridin-3-yl)amino)-N-(methyl-d3)nicotinamide] | 8.18 | 9.86 | 48.3 | 57.4 µM (≈ 22.8 µg/mL) | 7.49 | 6.86 | – | – | – |
| [2H]C([2H])([2H])NC(=O)c1cnc(NC(=O)C2CC2)cc1Nc1cnn2ccc(C(O)C(F)(F)F)c(OC)c12 (stereo not drawn) [Example 7, 6-(Cyclopropanecarboxamido)-4-((4-methoxy-5-(2,2,2-trifluoro-1-hydroxyethyl)pyrazolo[1,5-a]pyridin-3-yl)amino)-N-(methyl-d3)nicotinamide] | 7.96 | 9.83 | 74.9 | 42.9 µM (≈ 20.7 µg/mL) | 8.03 | 7.17 | – | – | – |
| [2H]C([2H])([2H])NC(=O)c1cnc(NC(=O)[C@@H]2C[C@@H]2F)cc1Nc1cnn2ccc(C#N)c(OC)c12 [Example 13, 4-((5-Cyano-4-methoxypyrazolo[1,5-a]pyridin-3-yl)amino)-6-((1S,2S)-2-fluorocyclopropane-1-carboxamido)-N-(methyl-d3)nicotinamide] | 7.68 | 9.76 | 122.0 | 11.2 µM (≈ 4.77 µg/mL) | 6.88 | – | – | 22 µL/min/mg | 1.05 h |
| [2H]C([2H])([2H])NC(=O)c1cnc(NC(=O)[C@@H]2C[C@@H]2F)cc1Nc1cnn2cnc(C(C)C(F)(F)F)c(OC)c12 (stereo partly drawn) [Example 38, 6-((1S,2S)-2-fluorocyclopropane-1-carboxamido)-4-((4-methoxy-5-(1,1,1-trifluoropropan-2-yl)pyrazolo[1,5-c]pyrimidin-3-yl)amino)-N-(methyl-d3)nicotinamide] | 6.84 | 9.12 | 188.7 | 37.2 µM (≈ 18.5 µg/mL) | 5.87 | – | – | 7.34 µL/min/mg | 3.15 h |
| [2H]C([2H])([2H])NC(=O)c1cnc(NC(=O)C2CC2)cc1Nc1cnn2ccc(Cl)c(OC)c12 [Example 3, 4-((5-Chloro-4-methoxypyrazolo[1,5-a]pyridin-3-yl)amino)-6-(cyclopropanecarboxamido)-N-(methyl-d3)nicotinamide] | 7.87 | 9.65 | 59.9 | 15.1 µM (≈ 6.31 µg/mL) | 7.36 | 6.75 | – | – | – |
| [2H]C([2H])([2H])NC(=O)c1cnc(NC(=O)C2CC2)cc1Nc1cn(C)c2ccc(CC)c(OC)c12 [Example 2, 6-(Cyclopropanecarboxamido)-4-((5-ethyl-4-methoxy-1-methyl-1H-indol-3-yl)amino)-N-(methyl-d3)nicotinamide] | 8.28 | 9.48 | 15.7 | 15.3 µM (≈ 6.5 µg/mL) | 7.77 | 6.85 | – | – | – |
| [2H]C([2H])([2H])NC(=O)c1cnc(NC(=O)C2CC2)cc1Nc1cnn2ccc(CC(F)(F)F)c(OC)c12 [Example 8, 6-(Cyclopropanecarboxamido)-4-((4-methoxy-5-(2,2,2-trifluoroethyl)pyrazolo[1,5-a]pyridin-3-yl)amino)-N-(methyl-d3)nicotinamide] | 8.47 | 9.97 | 32.0 | 18.6 µM (≈ 8.63 µg/mL) | 7.51 | 7.12 | – | – | – |
| [2H]C([2H])([2H])NC(=O)c1cnc(NC(=O)C2CC2)cc1Nc1cnn2ccc(COC([2H])([2H])[2H])c(OC)c12 [Example 29, 6-(Cyclopropanecarboxamido)-4-((4-methoxy-5-((methoxy-d3)methyl)pyrazolo[1,5-a]pyridin-3-yl)amino)-N-(methyl-d3)nicotinamide] | 7.78 | 9.66 | 76.4 | 67.2 µM (≈ 28.9 µg/mL) | 7.09 | – | – | 27.9 µL/min/mg | 0.827 h |
| [2H]C([2H])([2H])NC(=O)c1cnc(NC(=O)C2CC23CC3)cc1Nc1cnn2ccc([C@H](O)C(F)(F)F)c(OC)c12 (single isomer, unassigned) [Example 32A, 4-((4-Methoxy-5-((S)-2,2,2-trifluoro-1-hydroxyethyl)pyrazolo[1,5-a]pyridin-3-yl)amino)-N-(methyl-d3)-6-((S*)-spiro[2.2]pentane-1-carboxamido)nicotinamide] | 7.73 | 10.00 | 187.6 | 25.5 µM (≈ 12.9 µg/mL) | – | 7.00 | 7.48 | – | – |
